We go through 2 molecules from BindingDB's records for patent US10562890 (University of Virginia Patent Foundation, 2020).

This assay addresses T1, Core-binding factor subunit beta (Homo sapiens, UniProt Q13951).
T1 sequence (Q13951 whole entry): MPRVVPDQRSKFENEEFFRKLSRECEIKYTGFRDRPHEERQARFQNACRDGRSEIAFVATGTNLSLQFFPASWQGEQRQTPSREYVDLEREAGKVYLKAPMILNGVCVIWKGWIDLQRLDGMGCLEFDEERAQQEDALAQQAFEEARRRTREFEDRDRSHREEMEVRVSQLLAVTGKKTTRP
Put plainly: Fluorescence Resonance Energy Transfer (FRET) Assay. The text has this: FRET assay can be used to effectively monitor the inhibition of CBF binding to the Runt domain of RUNX proteins (as well as for CBFβ-SMMHC binding to the Runt domain of RUNX proteins). For the assay, the green fluorescent protein derivative Cerulean is fused to the N-terminus of the Runt domain and the green fluorescent protein derivative Venus to the N-terminus of CBFβ.

pIC50: −log10 of the molar value.

The molecule `FC(F)(F)Oc1ccc2[nH]c(-c3ccc(OCCN4CCN(Cc5ccccc5)CC4)cn3)nc2c1` [US10562890, Compound Al-14-95] gave a pIC50 of 5.58.

Regarding `COc1cc(OCCN2CCN(Cc3ccccc3)CC2)cnc1-c1nc2cc(OC(F)(F)F)ccc2[nH]1` [US10562890, Compound Al-14-100], the pIC50 is 5.67.
